Assay results published in the supplement of paper PMC13207355.

Legend:
Details in all cases: exposure time: 72 h
E57 [1] = patient-derived glioblastoma stem cells of mesenchymal subtype; test: surviving fraction (nuclei count normalised to DMSO); higher = more cells surviving (less toxic)
E21 [2] = patient-derived glioblastoma stem cells of mesenchymal subtype; test: as above
FT3469 [3] = normal neural stem cell line; test: as above
E13 [4] = patient-derived glioblastoma stem cells of classical subtype; test: as above
E28 [5] = patient-derived glioblastoma stem cells of classical subtype; test: as above
E31 [6] = patient-derived glioblastoma stem cells of proneural subtype; test: as above
E34 [7] = patient-derived glioblastoma stem cells of proneural subtype; test: as above
E57 [8] = test: phenotypic distance (Euclidean, principal components) from DMSO controls (arbitrary units); higher = stronger morphological change
E21 [9] = test: as above
FT3469 [10] = test: as above
E13 [11] = test: as above
E28 [12] = test: as above
E31 [13] = test: as above
E34 [14] = test: as above
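Wherever phenotypic distance (Euclidean, principal components) from DMSO controls is given: cell Painting imaging in 384-well plates, CellProfiler features reduced to at least 20 principal components, Euclidean distance versus same-plate DMSO vehicle wells (0.1% v/v), median over six images per well.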
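Wherever surviving fraction (nuclei count normalised to DMSO) is given: nuclei counted by high-content imaging of Hoechst-stained cells in laminin-coated 384-well plates, relative to 0.1% DMSO vehicle wells, with staurosporine as cell-death control.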

CN1C(=O)CC(c2ccccc2)C1=O (stereo unspecified) [Phensuximide]
Details | phenotypic distance | surviving fraction
E13 [4], 4.1 nM | – | 0.921
E13 [4], 12.3 nM | – | 0.916
E13 [4], 37 nM | – | 1.01
E13 [4], 111.1 nM | – | 1
E13 [4], 333.3 nM | – | 1
E13 [4], 1000 nM | – | 1.06
E13 [4], 3000 nM | – | 0.927
E13 [11], 4.1 nM | 1.82 | –
E13 [11], 12.3 nM | 4.3 | –
E13 [11], 37 nM | 2.63 | –
E13 [11], 111.1 nM | 0.682 | –
E13 [11], 333.3 nM | 0.274 | –
E13 [11], 1000 nM | 0.544 | –
E13 [11], 3000 nM | 0.597 | –
E21 [2], 4.1 nM | – | 0.998
E21 [2], 12.3 nM | – | 0.996
E21 [2], 37 nM | – | 1.03
E21 [2], 111.1 nM | – | 1.04
E21 [2], 333.3 nM | – | 1
E21 [2], 1000 nM | – | 1.09
E21 [2], 3000 nM | – | 0.963
E21 [9], 4.1 nM | 0.59 | –
E21 [9], 12.3 nM | 0.489 | –
E21 [9], 37 nM | 0.352 | –
E21 [9], 111.1 nM | 0.519 | –
E21 [9], 333.3 nM | 0.385 | –
E21 [9], 1000 nM | 0.686 | –
E21 [9], 3000 nM | 0.387 | –
E28 [5], 4.1 nM | – | 1.07
E28 [5], 12.3 nM | – | 1.03
E28 [5], 37 nM | – | 1.15
E28 [5], 111.1 nM | – | 1.09
E28 [5], 333.3 nM | – | 1
E28 [5], 1000 nM | – | 0.995
E28 [5], 3000 nM | – | 1.2
E28 [12], 4.1 nM | 0.664 | –
E28 [12], 12.3 nM | 0.467 | –
E28 [12], 37 nM | 0.453 | –
E28 [12], 111.1 nM | 0.603 | –
E28 [12], 333.3 nM | 0.45 | –
E28 [12], 1000 nM | 0.513 | –
E28 [12], 3000 nM | 0.714 | –
E31 [6], 4.1 nM | – | 1.08
E31 [6], 12.3 nM | – | 1.07
E31 [6], 37 nM | – | 1.1
E31 [6], 111.1 nM | – | 1.01
E31 [6], 333.3 nM | – | 1.14
E31 [6], 1000 nM | – | 1.13
E31 [6], 3000 nM | – | 0.991
E31 [13], 4.1 nM | 0.79 | –
E31 [13], 12.3 nM | 0.39 | –
E31 [13], 37 nM | 0.726 | –
E31 [13], 111.1 nM | 0.491 | –
E31 [13], 333.3 nM | 0.604 | –
E31 [13], 1000 nM | 0.913 | –
E31 [13], 3000 nM | 0.717 | –
E34 [7], 4.1 nM | – | 0.918
E34 [7], 12.3 nM | – | 1.14
E34 [7], 37 nM | – | 0.912
E34 [7], 111.1 nM | – | 0.81
E34 [7], 333.3 nM | – | 1.16
E34 [7], 1000 nM | – | 1.1
E34 [7], 3000 nM | – | 1.1
E34 [14], 4.1 nM | 0.49 | –
E34 [14], 12.3 nM | 0.73 | –
E34 [14], 37 nM | 0.867 | –
E34 [14], 111.1 nM | 0.657 | –
E34 [14], 333.3 nM | 1.01 | –
E34 [14], 1000 nM | 0.819 | –
E34 [14], 3000 nM | 0.663 | –
E57 [1], 4.1 nM | – | 1.02
E57 [1], 12.3 nM | – | 1.06
E57 [1], 37 nM | – | 1.05
E57 [1], 111.1 nM | – | 1.03
E57 [1], 333.3 nM | – | 1.05
E57 [1], 1000 nM | – | 1.04
E57 [1], 3000 nM | – | 0.978
E57 [8], 4.1 nM | 0.764 | –
E57 [8], 12.3 nM | 0.516 | –
E57 [8], 37 nM | 0.543 | –
E57 [8], 111.1 nM | 0.342 | –
E57 [8], 333.3 nM | 0.878 | –
E57 [8], 1000 nM | 0.346 | –
E57 [8], 3000 nM | 0.811 | –
FT3469 [3], 4.1 nM | – | 0.946
FT3469 [3], 12.3 nM | – | 0.989
FT3469 [3], 37 nM | – | 1
FT3469 [3], 111.1 nM | – | 1
FT3469 [3], 333.3 nM | – | 0.985
FT3469 [3], 1000 nM | – | 1.01
FT3469 [3], 3000 nM | – | 1.15
FT3469 [10], 4.1 nM | 1.58 | –
FT3469 [10], 12.3 nM | 0.664 | –
FT3469 [10], 37 nM | 0.821 | –
FT3469 [10], 111.1 nM | 0.515 | –
FT3469 [10], 333.3 nM | 0.721 | –
FT3469 [10], 1000 nM | 0.254 | –
FT3469 [10], 3000 nM | 0.402 | –

CCCCCCCCCCCCCC(=O)O[C@@H]1[C@@H](C)[C@@]2(O)[C@@H](C=C(CO)C[C@]3(O)C(=O)C(C)=C[C@@H]23)[C@@H]2C(C)(C)[C@]12OC(C)=O [Phorbol 12-myristate 13-acetate]
Details | phenotypic distance | surviving fraction
E13 [4], 4.1 nM | – | 0.681
E13 [4], 12.3 nM | – | 0.64
E13 [4], 37 nM | – | 0.728
E13 [4], 111.1 nM | – | 0.596
E13 [4], 333.3 nM | – | 0.708
E13 [4], 1000 nM | – | 0.576
E13 [4], 3000 nM | – | 0.47
E13 [11], 4.1 nM | 2.62 | –
E13 [11], 12.3 nM | 2.5 | –
E13 [11], 37 nM | 2.61 | –
E13 [11], 111.1 nM | 2.82 | –
E13 [11], 333.3 nM | 1.86 | –
E13 [11], 1000 nM | 2.26 | –
E13 [11], 3000 nM | 2.58 | –
E21 [2], 4.1 nM | – | 0.677
E21 [2], 12.3 nM | – | 0.88
E21 [2], 37 nM | – | 0.786
E21 [2], 111.1 nM | – | 0.68
E21 [2], 333.3 nM | – | 0.75
E21 [2], 1000 nM | – | 0.775
E21 [2], 3000 nM | – | 0.0234
E21 [9], 4.1 nM | 2.4 | –
E21 [9], 12.3 nM | 2.57 | –
E21 [9], 37 nM | 2.24 | –
E21 [9], 111.1 nM | 2.1 | –
E21 [9], 333.3 nM | 2.01 | –
E21 [9], 1000 nM | 1.76 | –
E21 [9], 3000 nM | 6.77 | –
E28 [5], 4.1 nM | – | 0.75
E28 [5], 12.3 nM | – | 0.65
E28 [5], 37 nM | – | 0.725
E28 [5], 111.1 nM | – | 0.795
E28 [5], 333.3 nM | – | 0.815
E28 [5], 1000 nM | – | 0.668
E28 [5], 3000 nM | – | 0.383
E28 [12], 4.1 nM | 2.11 | –
E28 [12], 12.3 nM | 1.89 | –
E28 [12], 37 nM | 1.72 | –
E28 [12], 111.1 nM | 1.44 | –
E28 [12], 333.3 nM | 1.52 | –
E28 [12], 1000 nM | 1.21 | –
E28 [12], 3000 nM | 4.49 | –
E31 [6], 4.1 nM | – | 1.07
E31 [6], 12.3 nM | – | 1.06
E31 [6], 37 nM | – | 1.23
E31 [6], 111.1 nM | – | 1.01
E31 [6], 333.3 nM | – | 1.07
E31 [6], 1000 nM | – | 0.994
E31 [6], 3000 nM | – | 0.0149
E31 [13], 4.1 nM | 3.22 | –
E31 [13], 12.3 nM | 3.36 | –
E31 [13], 37 nM | 2.74 | –
E31 [13], 111.1 nM | 1.67 | –
E31 [13], 333.3 nM | 1.98 | –
E31 [13], 1000 nM | 1.94 | –
E31 [13], 3000 nM | 6.13 | –
E34 [7], 4.1 nM | – | 0.524
E34 [7], 12.3 nM | – | 0.516
E34 [7], 37 nM | – | 0.618
E34 [7], 111.1 nM | – | 0.488
E34 [7], 333.3 nM | – | 0.688
E34 [7], 1000 nM | – | 0.48
E34 [7], 3000 nM | – | 0.478
E34 [14], 4.1 nM | 4.26 | –
E34 [14], 12.3 nM | 4.21 | –
E34 [14], 37 nM | 3.53 | –
E34 [14], 111.1 nM | 3.9 | –
E34 [14], 333.3 nM | 2.78 | –
E34 [14], 1000 nM | 2.96 | –
E34 [14], 3000 nM | 4.34 | –
E57 [1], 4.1 nM | – | 0.331
E57 [1], 12.3 nM | – | 0.32
E57 [1], 37 nM | – | 0.374
E57 [1], 111.1 nM | – | 0.233
E57 [1], 333.3 nM | – | 0.369
E57 [1], 1000 nM | – | 0.367
E57 [1], 3000 nM | – | 0.108
E57 [8], 4.1 nM | 7.04 | –
E57 [8], 12.3 nM | 6.41 | –
E57 [8], 37 nM | 5.79 | –
E57 [8], 111.1 nM | 8.21 | –
E57 [8], 333.3 nM | 6.38 | –
E57 [8], 1000 nM | 6.18 | –
E57 [8], 3000 nM | 11.1 | –
FT3469 [3], 4.1 nM | – | 0.75
FT3469 [3], 12.3 nM | – | 0.728
FT3469 [3], 37 nM | – | 0.729
FT3469 [3], 111.1 nM | – | 0.701
FT3469 [3], 333.3 nM | – | 0.832
FT3469 [3], 1000 nM | – | 0.791
FT3469 [3], 3000 nM | – | 0.571
FT3469 [10], 4.1 nM | 3.13 | –
FT3469 [10], 12.3 nM | 2.56 | –
FT3469 [10], 37 nM | 3.38 | –
FT3469 [10], 111.1 nM | 2.45 | –
FT3469 [10], 333.3 nM | 1.86 | –
FT3469 [10], 1000 nM | 2.16 | –
FT3469 [10], 3000 nM | 4.11 | –
